The subject of one assay is P-glycoprotein. Nature of the assay: P-glycoprotein expression level by western blotting after drug addition. It counts as cell-based, human. As to the method: In […] HCT-15 cells (obtained from Developmental Therapeutics Program, National Cancer Institute, National Institutes of Health, Bethesda, Md., USA) and […] SW620 cells (obtained from Developmental Therapeutics Program, National Cancer Institute, National Institutes of Health, Bethesda, Md., USA), which expressed P-glycoprotein at a high level, screening of drugs that reduced the expression level of P-glycoprotein was performed by western blotting. […]
Inhibitory effects of MEK inhibitor U0126 on the expression level of P-glycoprotein in HCT-15 and SW620 cells prepared by the same procedure as described in PREPARATION EXAMPLE 1 in which endogenous P-glycoprotein was expressed and in the MCF-7/MDR and MDA-MB-231/MDR cells in which exogenous P-glycoprotein was expressed were monitored with passage of time in a manner similar to EXAMPLE 1. […]
Using MEK inhibitor PD098059 (purchased from Cell Signaling Technology; see English, J. et al. (1999) Exp. Cell Res. 253, 255), which has an action mechanism different from U0126, inhibitory effects of MEK inhibitor PD098059 on the expression level of P-glycoprotein in the HCT-15 and SW620 cells in which endogenous P-glycoprotein was expressed and in the MCF-7/MDR and MDA-MB-231/MDR cells in which exogenous P-glycoprotein was expressed were monitored with passage of time in a manner similar to EXAMPLE 1. […]
On the technique in general: A western blot detects proteins with antibodies after separation by electrophoresis.

A further assay has as its system HCT-15 cells. The assay is described as follows: cell growth inhibition test, HCT-15. The format is cell-based. The conditions noted are these: Homo sapiens, 120 h, read-out: IC50 concentration (50% growth inhibitory concentration), 5 days.
A further assay relates to SW620-14 cells. The assay is described as follows: cell growth inhibition test, SW620-14. The conditions noted are these: Homo sapiens, 120 h, read-out: IC50 concentration (50% growth inhibitory concentration), 5 days. The format is cell-based.
In a further assay the test system is MCF-7/MDR cells. Nature of the assay: cell growth inhibition test, MCF-7/MDR. It counts as cell-based. As to conditions: Homo sapiens, MCF7, 120 h, read-out: IC50 concentration (50% growth inhibitory concentration), 5 days.
In a further assay the test system is MDA-MB-231/MDR cells. Nature of the assay: cell growth inhibition test, MDA-MB-231/MDR. The format is cell-based. The conditions noted are these: Homo sapiens, 120 h, read-out: IC50 concentration (50% growth inhibitory concentration), 5 days.
The test system of the next assay is MDR1 mRNA. The conditions noted are these: U0126 10 μM.
The next assay has as its system BCRP. As to conditions: U0126 10 μM; human colon cancer (HT-29, KM12), non-small-cell lung cancer (NCI-H460, A549) and ovarian cancer (OVACAR-5) cells; in 12 hours later (FIG. 5).

Data on three compounds can be found in patent US20090239936A1, “Prophylactic and Therapeutic Agent for Cancer” (priority 2006, published 2009).

Description for BCRP: After incubation for 8 hours or 12 hours, each drug was added to the cells followed by further incubation. Thereafter, the BCRP expression level was assessed by western blotting using an anti-BCRP antibody (manufactured by Chemicon International Inc., trade name: BXP-21). The protein of 10 μg each was electrophoresed in each lane. The protein was quantified by Bradford assay (Bio-Rad protein assay dye reagent). More specifically, the incubated cells were recovered with a cell scraper and centrifuged (5,000 rpm×3 mins.) to pellet down. […] While vortexing every 5 minutes, the cell membrane and cytoplasmic fractions were solubilized on ice for 30 minutes in total. Using the supernatant after centrifugation (15,000 rpm×15 mins.) as a sample, the protein was quantified.
Description for HCT-15 cells: (§1) The cells were plated in 12-well plates (manufactured by IWAKI GLASS Co. […] Subsequently, the drug diluted in the medium to different concentrations was added in a volume of 1 ml per well. The plates were placed in a 5% carbon dioxide gas incubator and incubation was performed at 37° C. for 5 days. Five days after, the cells were rinsed with phosphate buffer and detached with 0.5 ml of trypsin-EDTA. The cells were then suspended in 1 ml of the medium. The cell suspension in each well was added into a beaker containing 9 ml of […] diluent (TOA Medical Electronics Co., Ltd.), and the number of cells was counted with a Sysmex CDA-500 automated cell counter (TOA Medical Electronics Co., Ltd.).
Description for MCF-7/MDR cells: as §1
Description for MDA-MB-231/MDR cells: as §1
Description for SW620-14 cells: as §1

Consider `O=c1cc(N2CCOCC2)oc2c(-c3ccccc3)cccc12` [LY294002, 2-(4-morpholinyl)-8-phenyl-1(4H)-benzopyran-4-one], for which the P-glycoprotein expression level result in the assay with P-glycoprotein (HCT-15 cells and SW620 cells, endogenous P-glycoprotein, western blotting (FIG. 1)) is reported as “not down-regulated”.

Turning to `CC(=O)O[C@H]1C(=O)[C@@]2(C)[C@H]([C@H](OC(=O)c3ccccc3)[C@]3(O)C[C@H](OC(=O)[C@H](O)[C@@H](NC(=O)c4ccccc4)c4ccccc4)C(C)=C1C3(C)C)[C@]1(OC(C)=O)CO[C@@H]1C[C@@H]2O` [paclitaxel], the IC50 with HCT-15 cells was 100 nM; in the assay on SW620-14 cells it was 5 nM; in the assay with MCF-7/MDR cells it was 4 nM; with MDA-MB-231/MDR cells, 800 nM.

For the compound `N#CC(=C(N)Sc1ccccc1N)C(C#N)=C(N)Sc1ccccc1N` [U0126, 1,4-diamino-2,3-dicyano-1,4-bis[2-aminophenylthio]butadiene], in the assay with P-glycoprotein (U0126 10 μM, MCF-7/MDR and MDA-MB-231/MDR cells (exogenous P-glycoprotein), in 8 to 12 hours (FIG. 2)), the “expression level of P-glycoprotein” value is ≤ 10 % of control. The “expression level of MDR1 mRNA” value with MDR1 mRNA is given as “Any change was not observed”. Besides, the “expression level of BCRP” value in the assay with BCRP is “reduced”.
